Source: patent US10688093B2, “Methods, compositions, and uses of novel Fyn kinase inhibitors” (priority 2015, dated 2020)

What was measured:
[1] = biological target: full-length recombinant human FYN A (Homo sapiens (Human), UniProt P06241); test: ADP-Glo Kinase Assay of FYN kinase inhibition; assay type: biochemical; settings: primary screen, initial compounds
How it was run: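 GST-tagged full-length FYN A (baculovirus, Sf9) at 3 pg preincubated 30 min RT with compound (10-point 3-fold series from 10 μM) in Tris pH 7.5/MgCl2 buffer. 12-mer tyrosine peptide plus 12.5 pmol ATP added, 90 min RT; ADP measured by ADP-Glo luminescence, IC50 from dose-response.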

[2] = cited from earlier work

Chain of full-length recombinant human FYN A (P06241 whole entry): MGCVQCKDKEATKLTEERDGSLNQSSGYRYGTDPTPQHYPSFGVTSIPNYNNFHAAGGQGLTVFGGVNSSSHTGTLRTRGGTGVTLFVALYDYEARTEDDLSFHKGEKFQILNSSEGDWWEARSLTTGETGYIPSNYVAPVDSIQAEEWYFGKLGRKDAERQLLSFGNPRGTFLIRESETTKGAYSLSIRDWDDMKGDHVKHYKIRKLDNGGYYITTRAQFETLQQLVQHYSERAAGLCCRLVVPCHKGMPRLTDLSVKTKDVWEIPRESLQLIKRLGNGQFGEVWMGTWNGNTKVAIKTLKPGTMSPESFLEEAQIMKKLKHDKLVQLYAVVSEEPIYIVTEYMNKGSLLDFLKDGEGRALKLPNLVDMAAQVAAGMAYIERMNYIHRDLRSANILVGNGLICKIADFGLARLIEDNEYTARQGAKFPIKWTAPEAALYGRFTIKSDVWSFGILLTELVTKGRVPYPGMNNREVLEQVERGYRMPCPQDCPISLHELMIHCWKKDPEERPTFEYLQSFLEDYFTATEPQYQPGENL

| Structure (SMILES) | IC50 [1] | lipid utilization and energy utilization ([2]; Fyn knockout strains) | fat mass ([2]; treated mice relative to untreated control mice) |
| --- | --- | --- | --- |
| COc1cncc(-c2cnc3sc(NCC4CCOCC4)nn23)c1 [Compound 587, 5-(5-methoxy-3-pyridyl)-N-(tetrahydro-pyran-4-ylmethyl)imidazo [2,1-d][1,3,4] thiadiazol-2-amine] | 0.384 µM | – | – |
| Cc1ccccc1CNc1nn2c(-c3cccnc3)cnc2s1 [Compound 589, N-(o-tolylmethyl)-5-(3-pyridyl) imidazo[2,1-b] [1,3,4]thiadiazol-2-amine] | 1.08 µM | – | – |
| CN1CCN(c2ccc(Nc3cc4c(cn3)cc(-c3cccc(C(F)(F)F)c3)n4C)cc2)CC1 [Compound 590, 1-methyl-N-[4-(4-methylpiperazin-1-yl)phenyl]-2-[3-(trifluoromethyl)phenyl]pyrrolo [3,2-c]pyridin-6-amine] | 30 µM | – | – |
| CN1CCN(c2ccc(Nc3cc4c(cn3)cc(-c3cccc(F)c3)n4C)cc2)CC1 [Compound 592, 2-(3-fluorophenyl)-1-methyl-N-[4-(4-methylpiperazin-1-yl)phenyl] pyrrolo[3,2-c]pyridin-6-amine] | 12.9 µM | – | – |
| COc1ccccc1-c1cc2c(Nc3ccc(NC(C)=O)cc3)nccc2[nH]1 [Compound 597, N-[4-[[2-(2-methoxyphenyl)-1H-pyrrolo[3,2-c]pyridin-4-yl]amino]phenyl] acetamide] | 30 µM | – | – |
| COc1ccc(OC)c(-n2c(-c3ccc(F)cc3)cn3c4c(=O)[nH]c(=O)n(C)c4nc23)c1 [Compound 599, 8-(2,5-dimethoxy-phenyl)-7-(4-fluorophenyl)-1-methyl-3H-imidazo [1,2-g]purine-2,4-dione] | 18.4 µM | – | – |
| COC(=O)c1c(N)n(-c2cccc(O)c2)c2nc3ccccc3nc12 [Compound 600, methyl 2-amino-1-(3-hydroxy-phenyl)pyrrolo [3,2-b]quinoxaline-3-carboxylate] | 2.26 µM | – | – |
| CN(C)S(=O)(=O)c1ccc2c(c1)/C(=C/c1cc3c([nH]1)CCCC3)C(=O)N2 [SU6656] | – | no increase in either parameter | significantly reduced |

Second part, led by results:

| IC50 [1] | Structure (SMILES) | lipid utilization and energy utilization ([2]; Fyn knockout strains) | fat mass ([2]; treated mice relative to untreated control mice) |
| --- | --- | --- | --- |
| 9.65 µM | COc1ccc(CNc2nn3c(-c4cncc(OC)c4)cnc3s2)cc1 [Compound 588, N-[(4-methoxyphenyl)methyl]-5-(5-methoxy-3-pyridyl)imidazo [2,1-3][1,3,4] thiadiazol-2-amine] | – | – |
| 16.8 µM | Cn1c(-c2cccc(C(F)(F)F)c2)cc2cnc(Nc3ccncn3)cc21 [Compound 591, 1-methyl-N-pyrimidin-4-yl-2-[3-(trifluoro-methyl)phenyl] pyrrolo[3,2-c]pyridin-6-amine] | – | – |
| 9.09 µM | Cn1c(-c2cccc(F)c2)cc2cnc(Nc3ccncn3)cc21 [Compound 593, 2-(3-fluorophenyl)-1-methyl-N-pyrimidin-4-yl-pyrrolo[3,2-c]pyridin-6-amine] | – | – |
| 4.07 µM | NC1=C(c2nc3ccccc3[nH]2)C(=O)CN1c1ccc2c(c1)OCO2 [Compound 594, 5-amino-4-(1H-benzimidazol-2-yl)-1-(1,3-benzodioxol-5-yl)-2H-pyrrol-3-one] | – | – |
| 7.04 µM | CN1CCN(c2ccc(Nc3nccc4[nH]c(-c5ccc(C(=O)N(C)C)cc5)cc34)cc2)CC1 [Compound 595, N,N-dimethyl-4-[4-[4-(4-methylpiperazin-1-yl)anilino]-1H-pyrrolo[3,2-c]pyridin-2-yl]benzamide] | – | – |
| 30 µM | COc1cc(OC)cc(-c2cc3c(N4CCOCC4)nccc3[nH]2)c1 [Compound 596, 4-[2-(3,5-dimethoxy-phenyl)-1H-pyrrolo[3,2-c]pyridin-4-yl]morpholine] | – | – |
| 30 µM | COc1ccccc1-c1cc2c(Nc3cccc(C(F)(F)F)c3)nccc2n1C [Compound 598, 2-(2-methoxyphenyl)-1-methyl-N-[3-(trifluoromethyl)phenyl]pyrrolo [3,2-c]pyridin-4-amine] | – | – |
